{"source": "ChEMBL document CHEMBL3098072", "about": "(Bioorg Med Chem, 2014)", "key": {"[1]": {"assay": "Solubility of the compound in DMSO", "assay_type": "physicochemical"}, "[2]": {"test_system": "Mycobacterium tuberculosis", "assay": "microbe, parasite or virus in culture", "conditions": "H37Rv, 96 h"}, "[3]": {"target": "T1, Inorganic pyrophosphatase (Mycobacterium tuberculosis (strain ATCC 25618 / H37Rv)) (UniProt P9WI55)", "T1 sequence (whole entry)": "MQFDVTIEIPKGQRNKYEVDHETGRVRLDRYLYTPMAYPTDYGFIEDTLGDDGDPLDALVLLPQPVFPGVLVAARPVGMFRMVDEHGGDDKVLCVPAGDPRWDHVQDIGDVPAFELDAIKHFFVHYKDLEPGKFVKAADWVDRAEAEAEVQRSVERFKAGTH", "assay": "Inhibition of Mycobacterium tuberculosis PPase at 100 uM using inorganic pyrophosphate as substrate preincubated for 2 mins followed by substrate addition measured after 6 mins by malachite green assay"}, "[4]": {"target": "T2, Inorganic pyrophosphatase (Mycobacterium tuberculosis (strain ATCC 25618 / H37Rv), UniProt P9WI55)", "T2 sequence (P9WI55 whole entry)": "T1 sequence (whole entry)", "assay": "Inhibition of Mycobacterium tuberculosis PPase using inorganic pyrophosphate as substrate preincubated for 2 mins followed by substrate addition measured after 6 mins by malachite green assay"}, "[5]": {"assay": "Cytotoxicity against mouse J774A1 cells at 64 uM after 2 hrs by MTS assay relative to control", "assay_type": "cell-based", "conditions": "j774.a1, 2 h"}, "HeLa": {"test_system": "HeLa", "assay": "Cytotoxicity against human HeLa cells at 64 uM after 2 hrs by MTS assay relative to control", "assay_type": "cell-based"}, "Staphylococcus aureus": {"test_system": "Staphylococcus aureus", "assay": "microbe, parasite or virus in culture", "conditions": "20 h"}, "Bacillus subtilis": {"test_system": "Bacillus subtilis", "assay": "microbe, parasite or virus in culture", "conditions": "20 h"}, "Bacillus anthracis": {"test_system": "Bacillus anthracis", "assay": "microbe, parasite or virus in culture", "conditions": "Sterne 34F2, 20 h"}}, "note": "Active and inactive are the calls of the source. The calls are words filed in the database; no cut-off is given here."}
{"smiles": "O=[N+]([O-])c1cccc(-c2ccc(-c3cnnc(N4CCC(c5cccc(Cl)c5)C4)n3)o2)c1", "note": "(stereo not drawn)", "values": [{"measurement": "solubility", "setting": "[1]", "value": "< 100", "unit": "µM"}, {"measurement": "MIC", "setting": "[2]", "value": "> 16", "unit": "µM"}]}
{"smiles": "Cc1ccc(-c2cnnc(N3CCC(c4cccc(OCc5ccccc5)c4)C3)n2)o1", "note": "(stereo not drawn)", "values": [{"measurement": "inhibition", "setting": "[3]", "value": 73.2, "unit": "%"}, {"measurement": "IC50", "setting": "[4]", "value": 63.2, "unit": "µM"}]}
{"smiles": "Clc1cccc(C2CCN(c3nncc(-c4ccccc4)n3)C2)c1", "note": "(stereo not drawn)", "values": [{"measurement": "Activity", "setting": "[5]", "value": "Non-toxic"}, {"measurement": "Activity", "setting": "HeLa", "value": "Non-toxic"}]}
{"smiles": "Cc1ccc(-c2cnnc(N3CCC(c4ccccc4)C3)n2)o1", "note": "(stereo not drawn)", "values": [{"measurement": "MIC", "setting": "[2]", "value": 40.5, "unit": "µM"}, {"measurement": "inhibition", "setting": "[3]", "value": 19.7, "unit": "%"}]}
{"smiles": "Cc1ccc(-c2cnnc(N3CCC(c4cccc(Cl)c4)C3)n2)o1", "note": "(stereo not drawn)", "values": [{"measurement": "MIC", "setting": "[2]", "value": 61, "unit": "µM"}, {"measurement": "inhibition", "setting": "[3]", "value": 45.6, "unit": "%"}, {"measurement": "IC50", "setting": "[4]", "value": 148, "unit": "µM"}]}
{"smiles": "Cc1ccc(-c2cnnc(N3CCC(c4cccc([N+](=O)[O-])c4)C3)n2)o1", "note": "(stereo not drawn)", "values": [{"measurement": "solubility", "setting": "[1]", "value": "< 100", "unit": "µM"}, {"measurement": "MIC", "setting": "[2]", "value": "> 16", "unit": "µM"}]}
{"smiles": "O=[N+]([O-])c1cccc(-c2ccc(-c3cnnc(N4CCC(c5cccc(Cl)c5)C4)n3)cc2)c1", "note": "(stereo not drawn)", "values": [{"measurement": "MIC", "setting": "[2]", "value": "> 128", "unit": "µM"}, {"measurement": "inhibition", "setting": "[3]", "value": "inactive"}]}
{"smiles": "Cc1ccc(-c2cnnc(N3CCC(n4cnc5c(N)ncnc54)C3)n2)o1", "note": "(stereo not drawn)", "values": [{"measurement": "MIC", "setting": "[2]", "value": "> 128", "unit": "µM"}, {"measurement": "inhibition", "setting": "[3]", "value": "inactive"}]}
{"smiles": "COC(=O)c1cccc(-c2ccc(-c3cnnc(N4CCC(c5cccc(Cl)c5)C4)n3)o2)c1", "note": "(stereo not drawn)", "values": [{"measurement": "solubility", "setting": "[1]", "value": "< 100", "unit": "µM"}, {"measurement": "MIC", "setting": "[2]", "value": "> 16", "unit": "µM"}]}
{"smiles": "O=[N+]([O-])c1cccc(-c2cnnc(N3CCC(c4cccc(Cl)c4)C3)n2)c1", "note": "(stereo not drawn)", "values": [{"measurement": "MIC", "setting": "[2]", "value": "> 128", "unit": "µM"}, {"measurement": "inhibition", "setting": "[3]", "value": 39.4, "unit": "%"}, {"measurement": "IC50", "setting": "[4]", "value": 118, "unit": "µM"}]}
{"smiles": "NNC(=O)c1ccncc1", "note": "[ISONIAZID]", "values": [{"measurement": "MIC", "setting": "[2]", "value": 0.45, "unit": "µM"}]}
{"smiles": "CO[C@H]1/C=C/O[C@@]2(C)Oc3c(C)c(O)c4c(O)c(c(/C=N/N5CCN(C)CC5)c(O)c4c3C2=O)NC(=O)/C(C)=C\\C=C\\[C@H](C)[C@H](O)[C@@H](C)[C@@H](O)[C@@H](C)[C@H](OC(C)=O)[C@@H]1C", "note": "[RIFAMPIN]", "values": [{"measurement": "MIC", "setting": "[2]", "value": 0.08, "unit": "µM"}]}
{"smiles": "Clc1cccc(C2CCN(c3nncc(-c4ccc5c(c4)OCO5)n3)C2)c1", "note": "(stereo not drawn)", "values": [{"measurement": "solubility", "setting": "[1]", "value": "< 100", "unit": "µM"}, {"measurement": "MIC", "setting": "[2]", "value": "> 16", "unit": "µM"}]}
{"smiles": "Cc1ccc(-c2cnnc(N3CCC(c4cccc(O)c4)C3)n2)o1", "note": "(stereo not drawn)", "values": [{"measurement": "Activity", "setting": "[5]", "value": "Non-toxic"}, {"measurement": "MIC", "setting": "Staphylococcus aureus", "value": "> 50", "unit": "µM"}, {"measurement": "MIC", "setting": "[2]", "value": 60.3, "unit": "µM"}, {"measurement": "MIC", "setting": "Bacillus subtilis", "value": 128, "unit": "µM"}, {"measurement": "MBC", "setting": "Bacillus anthracis", "value": 128, "unit": "µM"}, {"measurement": "MIC", "setting": "Bacillus anthracis", "value": 64, "unit": "µM"}, {"measurement": "Activity", "setting": "HeLa", "value": "Non-toxic"}, {"measurement": "inhibition", "setting": "[3]", "value": "inactive"}]}
{"smiles": "Clc1cccc(C2CCN(c3nncc(-c4ccc(Br)cc4)n3)C2)c1", "note": "(stereo not drawn)", "values": [{"measurement": "MIC", "setting": "[2]", "value": 30.7, "unit": "µM"}, {"measurement": "inhibition", "setting": "[3]", "value": 53, "unit": "%"}, {"measurement": "IC50", "setting": "[4]", "value": 33.3, "unit": "µM"}]}
{"smiles": "Cc1ccc(-c2cnnc(N3CCC(c4cccc(C#N)c4)C3)n2)o1", "note": "(stereo not drawn)", "values": [{"measurement": "MIC", "setting": "[2]", "value": 64.4, "unit": "µM"}, {"measurement": "inhibition", "setting": "[3]", "value": 10.3, "unit": "%"}]}
{"smiles": "Cc1ccc(-c2cnnc(N3CCC(c4cccc(C(F)(F)F)c4)C3)n2)o1", "note": "(stereo not drawn)", "values": [{"measurement": "MIC", "setting": "[2]", "value": 52.4, "unit": "µM"}, {"measurement": "inhibition", "setting": "[3]", "value": 37.8, "unit": "%"}, {"measurement": "IC50", "setting": "[4]", "value": 355, "unit": "µM"}]}
{"smiles": "Nc1ccc(-c2cnnc(N3CCC(c4cccc(Cl)c4)C3)n2)cc1", "note": "(stereo not drawn)", "values": [{"measurement": "Activity", "setting": "[5]", "value": "Non-toxic"}, {"measurement": "MIC", "setting": "[2]", "value": 5.7, "unit": "µM"}, {"measurement": "MBC", "setting": "Bacillus anthracis", "value": 128, "unit": "µM"}, {"measurement": "MIC", "setting": "Bacillus anthracis", "value": 16, "unit": "µM"}, {"measurement": "Activity", "setting": "HeLa", "value": "Non-toxic"}]}
{"smiles": "CN[C@H](CC(C)C)C(=O)N[C@H]1C(=O)N[C@@H](CC(N)=O)C(=O)N[C@H]2C(=O)N[C@H]3C(=O)N[C@H](C(=O)N[C@H](C(=O)O)c4cc(O)cc(O)c4-c4cc3ccc4O)[C@H](O)c3ccc(c(Cl)c3)Oc3cc2cc(c3O[C@@H]2O[C@H](CO)[C@@H](O)[C@H](O)[C@H]2O[C@H]2C[C@](C)(N)[C@H](O)[C@H](C)O2)Oc2ccc(cc2Cl)[C@H]1O", "note": "[VANCOMYCIN]", "values": [{"measurement": "MBC", "setting": "Bacillus subtilis", "value": "< 1", "unit": "µM"}, {"measurement": "MIC", "setting": "Bacillus subtilis", "value": "< 1", "unit": "µM"}, {"measurement": "MBC", "setting": "Bacillus anthracis", "value": "< 1", "unit": "µM"}, {"measurement": "MIC", "setting": "Bacillus anthracis", "value": "< 1", "unit": "µM"}]}
{"smiles": "Cc1ccc(-c2cnnc(N3CCC(c4ccc(O)c(O)c4)C3)n2)o1", "note": "(stereo not drawn)", "values": [{"measurement": "MIC", "setting": "[2]", "value": "> 128", "unit": "µM"}, {"measurement": "inhibition", "setting": "[3]", "value": "inactive"}]}
{"smiles": "COc1ccc(C2CCN(c3nncc(-c4ccc(C)o4)n3)C2)cc1O", "note": "(stereo not drawn)", "values": [{"measurement": "MIC", "setting": "[2]", "value": "> 128", "unit": "µM"}, {"measurement": "inhibition", "setting": "[3]", "value": 5, "unit": "%"}]}
{"smiles": "COc1ccc(-c2cnnc(N3CCC(c4cccc(Cl)c4)C3)n2)cc1OC", "note": "(stereo not drawn)", "values": [{"measurement": "Activity", "setting": "[5]", "value": "Non-toxic"}, {"measurement": "Activity", "setting": "HeLa", "value": "Non-toxic"}]}
{"smiles": "FC(F)(F)c1ccccc1-c1ccc(-c2cnnc(N3CCC(c4cccc(Cl)c4)C3)n2)o1", "note": "(stereo not drawn)", "values": [{"measurement": "MIC", "setting": "[2]", "value": "> 128", "unit": "µM"}, {"measurement": "inhibition", "setting": "[3]", "value": 67.7, "unit": "%"}, {"measurement": "IC50", "setting": "[4]", "value": 38.3, "unit": "µM"}]}
{"smiles": "O=[N+]([O-])c1ccc(-c2cnnc(N3CCC(c4cccc(Cl)c4)C3)n2)cc1", "note": "(stereo not drawn)", "values": [{"measurement": "MIC", "setting": "[2]", "value": 31.2, "unit": "µM"}, {"measurement": "inhibition", "setting": "[3]", "value": 30.3, "unit": "%"}]}
{"smiles": "Cc1ccc(-c2cnnc(N3CCC(c4cccc(N)c4)C3)n2)o1", "note": "(stereo not drawn)", "values": [{"measurement": "MIC", "setting": "[2]", "value": 70.1, "unit": "µM"}, {"measurement": "inhibition", "setting": "[3]", "value": 33.4, "unit": "%"}]}
{"smiles": "Nc1cccc(-c2cnnc(N3CCC(c4cccc(Cl)c4)C3)n2)c1", "note": "(stereo not drawn)", "values": [{"measurement": "Activity", "setting": "[5]", "value": "Non-toxic"}, {"measurement": "Activity", "setting": "HeLa", "value": "Non-toxic"}]}
{"smiles": "Cc1ccc(-c2cnnc(N3CCC(c4cccc(F)c4)C3)n2)o1", "note": "(stereo not drawn)", "values": [{"measurement": "MIC", "setting": "[2]", "value": 38.9, "unit": "µM"}, {"measurement": "inhibition", "setting": "[3]", "value": 21.3, "unit": "%"}]}
